According to the NIST ThermoML archive (doi:10.1016/j.jct.2016.12.012):
Values joined by “and” are separate entries in the source; they are usually repeats but may differ in a detail not shown here. Equal entries are not always repeated. Numbers after ± are expanded uncertainties.

Legend:
[1] = Molar enthalpy of transition or fusion; details: DSC
[2] = for Normal melting temperature: DTA

COc1ccc(C(C)=O)cc1 [4'-methoxyacetophenone]
Crystal
Details	Molar enthalpy of transition or fusion [kcal/mol]	Normal melting temperature [°C]
[1]	4.02 ± 0.167	–
[2]	–	37.2 ± 0.4

[2]
Details	vapor or sublimation pressure [kPa]
296.23 K, Crystal, Closed cell (Static) method	0.00059 ± 0.00011
298.19 K, Crystal, Closed cell (Static) method	0.00075 ± 0.00011
300.19 K, Crystal, Closed cell (Static) method	0.00096 ± 0.00011
302.13 K, Metastable liquid, Closed cell (Static) method	0.00143 ± 0.00012
302.18 K, Crystal, Closed cell (Static) method	0.00121 ± 0.00012
304.14 K, Metastable liquid, Closed cell (Static) method	0.00174 ± 0.00012
304.15 K, Crystal, Closed cell (Static) method	0.00153 ± 0.00012
306.09 K, Metastable liquid, Closed cell (Static) method	0.00209 ± 0.00013
306.12 K, Crystal, Closed cell (Static) method	0.00192 ± 0.00013
308.1 K, Crystal, Closed cell (Static) method	0.00239 ± 0.00014
308.12 K, Metastable liquid, Closed cell (Static) method	0.00251 ± 0.00014
310.08 K, Metastable liquid, Closed cell (Static) method	0.00301 ± 0.00016
312.06 K, Closed cell (Static) method, Liquid	0.0036 ± 0.00018
314.2 K, Closed cell (Static) method, Liquid	0.00436 ± 0.0002
316.08 K, Closed cell (Static) method, Liquid	0.00516 ± 0.00023
318.02 K, Closed cell (Static) method, Liquid	0.0061 ± 0.00026
320.04 K, Closed cell (Static) method, Liquid	0.00716 ± 0.0003
321.98 K, Closed cell (Static) method, Liquid	0.00847 ± 0.00035
324.01 K, Closed cell (Static) method, Liquid	0.01002 ± 0.00041
326 K, Closed cell (Static) method, Liquid	0.01174 ± 0.00047
327.92 K, Closed cell (Static) method, Liquid	0.01375 ± 0.00053
329.93 K, Closed cell (Static) method, Liquid	0.01614 ± 0.00056
331.9 K, Closed cell (Static) method, Liquid	0.0189 ± 0.00061
333.88 K, Closed cell (Static) method, Liquid	0.02202 ± 0.00065
335.86 K, Closed cell (Static) method, Liquid	0.02563 ± 0.00071
337.93 K, Closed cell (Static) method, Liquid	0.02998 ± 0.00078
339.82 K, Closed cell (Static) method, Liquid	0.03463 ± 0.00085
341.89 K, Closed cell (Static) method, Liquid	0.04012 ± 0.00093
343.72 K, Closed cell (Static) method, Liquid	0.04593 ± 0.001
345.84 K, Closed cell (Static) method, Liquid	0.05323 ± 0.0011
347.69 K, Closed cell (Static) method, Liquid	0.06033 ± 0.0012
349.8 K, Closed cell (Static) method, Liquid	0.06953 ± 0.0014
351.63 K, Closed cell (Static) method, Liquid	0.07823 ± 0.0015
353.72 K, Closed cell (Static) method, Liquid	0.09003 ± 0.0017
355.73 K, Closed cell (Static) method, Liquid	0.1035 ± 0.0019

CC(=O)Oc1ccc(C(C)=O)cc1 [4-acetoxyacetophenone]
Details	Molar enthalpy of transition or fusion, Crystal 1 [kcal/mol]	Molar enthalpy of transition or fusion, Crystal 2 [kcal/mol]	Normal melting temperature, Crystal 1 [°C]	Triple point temperature, Crystal 2, DSC [K]
[1]	4.97 ± 0.167	0.143 ± 0.0956	–	–
[2]	–	–	51.0 ± 0.6	310.1 ± 0.8

[2]
Details	vapor or sublimation pressure
298.12 K, Crystal 2, Calculated from knudsen effusion weight loss	9.3e-05 ± 2e-05 kPa
299.15 K, Crystal 2, Calculated from knudsen effusion weight loss	0.000105 ± 2e-05 kPa and 0.000106 ± 2e-05 kPa
300.3 K, Crystal 2, Calculated from knudsen effusion weight loss	0.000123 ± 2e-05 kPa
301.34 K, Crystal 2, Calculated from knudsen effusion weight loss	0.000143 ± 2.1e-05 kPa and 0.000142 ± 2.1e-05 kPa and 0.000141 ± 2.1e-05 kPa
302.25 K, Crystal 2, Calculated from knudsen effusion weight loss	0.000159 ± 2.1e-05 kPa
303.23 K, Crystal 2, Calculated from knudsen effusion weight loss	0.000185 ± 2.1e-05 kPa and 0.000184 ± 2.1e-05 kPa
304.1 K, Crystal 2, Calculated from knudsen effusion weight loss	0.000202 ± 2.1e-05 kPa and 0.000205 ± 2.1e-05 kPa
305.13 K, Crystal 2, Calculated from knudsen effusion weight loss	0.00023 ± 2.2e-05 kPa and 0.000232 ± 2.2e-05 kPa and 0.000229 ± 2.2e-05 kPa
306.26 K, Crystal 2, Calculated from knudsen effusion weight loss	0.000268 ± 2.2e-05 kPa and 0.000266 ± 2.2e-05 kPa
307.14 K, Crystal 2, Calculated from knudsen effusion weight loss	0.0003 ± 2.3e-05 kPa and 0.000301 ± 2.3e-05 kPa
308.25 K, Crystal 2, Calculated from knudsen effusion weight loss	0.000347 ± 2.3e-05 kPa and 0.000346 ± 2.3e-05 kPa
309.29 K, Crystal 2, Calculated from knudsen effusion weight loss	0.000397 ± 2.4e-05 kPa and 0.000395 ± 2.4e-05 kPa and 0.000394 ± 2.4e-05 kPa
315 K, Crystal 1, Closed cell (Static) method	0.00078 ± 0.00011 kPa
316 K, Crystal 1, Closed cell (Static) method	0.00087 ± 0.00012 kPa
317 K, Crystal 1, Closed cell (Static) method	0.00098 ± 0.00012 kPa
317.96 K, Crystal 1, Closed cell (Static) method	0.00109 ± 0.00012 kPa
318.99 K, Crystal 1, Closed cell (Static) method	0.00123 ± 0.00012 kPa
319.96 K, Crystal 1, Closed cell (Static) method	0.00139 ± 0.00012 kPa
321.01 K, Crystal 1, Closed cell (Static) method	0.00155 ± 0.00013 kPa
321.89 K, Crystal 1, Closed cell (Static) method	0.00173 ± 0.00013 kPa
322.88 K, Crystal 1, Closed cell (Static) method	0.00195 ± 0.00013 kPa
323.91 K, Crystal 1, Closed cell (Static) method	0.00218 ± 0.00014 kPa

[2], Liquid, Closed cell (Static) method
Details	vapor or sublimation pressure [kPa]
328.88 K	0.00341 ± 0.00017
330.91 K	0.00406 ± 0.0002
332.89 K	0.00478 ± 0.00022
334.84 K	0.00555 ± 0.00025
336.85 K	0.00658 ± 0.00028
338.81 K	0.00777 ± 0.00033
340.85 K	0.00908 ± 0.00037
342.77 K	0.01045 ± 0.00042
344.77 K	0.01225 ± 0.00049
346.74 K	0.01408 ± 0.00053
348.68 K	0.01633 ± 0.00057
350.65 K	0.01885 ± 0.00061
352.66 K	0.02182 ± 0.00065
354.62 K	0.02505 ± 0.0007
356.57 K	0.02907 ± 0.00076
358.59 K	0.03305 ± 0.00082
360.49 K	0.03795 ± 0.0009
362.51 K	0.04335 ± 0.00098
364.46 K	0.04961 ± 0.0011
366.46 K	0.05645 ± 0.0012
368.38 K	0.06404 ± 0.0013
370.41 K	0.07307 ± 0.0014
372.31 K	0.08205 ± 0.0016
374.34 K	0.09319 ± 0.0018
376.33 K	0.1048 ± 0.0019
378.32 K	0.1186 ± 0.0021
